Test results reported in publication PMC6479817, “In Vitro and In Situ Characterization of the Intestinal Absorption of Capilliposide B and Capilliposide C from Lysimachia capillipes Hemsl” (Molecules, 2019).

Experiments:
caco-2 cells = assay: MTT colorimetric assay of caco-2 cell viability; assay type: cell-based, human; conditions: 24 h; for effect on cell growth (MTT): concentration less than 40 μg/mL; for effect on cell viability (MTT): concentration over 40 μg/mL
Description: The effects of CAPs on caco-2 cell viability were checked by 3-(4,5-dimethyl-2-thiazolyl)-2,5-diphenyl-2-H-tetrazolium bromide (MTT) colorimetric assay, which is adapted to analyze cell proliferation and drug cytotoxicity. […] In brief, caco-2 cells were seeded at 4 × 10^3 cells/well into 96-well culture plates and were incubated at 37 °C for 24 h before the assay. The cells were treated with different concentrations (0, 10, 20, 40, 80, 120, 160 and 240 μg/mL) of CAPs. After 24 h of incubation, 20 µL of MTT (5 mg/mL) was added to each well and the cells were incubated for another 4 h. After removing the culture medium, 100 µL of dimethyl sulfoxide was added to dissolve the contents in the plate. Then, the absorbance was measured at 570 and 630 nm (reference wavelength) using a microplate reader (Multiskan MK3; Thermo Fisher Scientific, Waltham, MA, USA).
Figure S2: Capilliposides (CAPs) inhibited the proliferation of caco-2 cells. Caco-2 cells were treated for 24 h with different concentrations (0, 10, 20, 40, 80, 120, 160 and 240 ug/mL) of CAPs. p < 0.05(*), comparison with the group of 0 ug/mL. All the results are expressed as mean ± S.D. (n=3).

[1] = Stability in Krebsringer buffer (K-R buffer) at different pH values; assay type: physicochemical; conditions: pH 5.0, pH 6.55, pH 7.43
Text: The SPIP model was used to further explore the intestinal permeability features of CAPB and CAPC in rats. Firstly, we determined the stability of CAPB and CAPC in the Krebsringer buffer (K-R buffer) across different pH values. […] In other words, CAPB and CAPC were stable in a weakly acidic environment. Because the pH of intestinal juice was close to 6.55, we used a K-R buffer at pH 6.55 as the perfusion solution.
Figure 4 The characterization of the intestinal permeability of capilliposide B (CAPB) and capilliposide C (CAPC) in single-pass intestinal perfusion (SPIP) model. The stability of CAPB and CAPC were measured at different pH values (pH 5, pH 6.55, and pH 7.34, respectively) (A). The absorption rate constants (ka, s^−1) values (B) and effective permeability (Peff, cm/s) values (C) for CAPB and CAPC at different initial drug concentrations (20 μg/mL, 50 μg/mL, and 80 μg/mL, respectively). p < 0.05 (*) compared with the group at 80 μg/mL. The Ka values (D) and Peff values (E) of CAPB and CAPC obtained from the duodenum, jejunum, and ileum in SPIP models. p < 0.05 (*) compared with the duodenum. All the results are expressed as mean ± S.D. (n = 3).

[2] = tested on: intestinal segment (duodenum, jejunum, ileum); assay type: in vivo; conditions: rat; for change of Peff and Ka values at higher drug concentration (80 μg/mL) / change of Peff and Ka values between 20 and 50 μg/mL / increase of Peff with indomethacin / increase of intestinal transport with verapamil / order of Peff and Ka values in three intestinal segments: in vivo
Description: Male Sprague-Dawley (SD) rats (280 ± 30 g) were supplied by the Laboratory Animal Center, Zhejiang Chinese Medical University (Zhejiang, China). All animals were fasted overnight (12-18 h) with free access to water before experiments. All experiments were performed in accordance with the guidelines for the care and use of animals as established by the Laboratory Animal Centre, Zhejiang Chinese Medical University (Zhejiang, China) (approval number: ACXK20150016). The perfusion experiment was performed as previously reported. In brief, rats were fasted overnight but permitted to drink water freely the day before the experiments. After being anesthetized, the rats were placed on the surface of a thermostatic device and maintained at 37 °C. An incision of approximately 3 cm was made along the midline of the abdominal cavity to expose the contents of the abdomen. […] Then the incision was made at both sides of the segment. The intestinal contents were rinsed with saline preheated at 37 °C, drained with air, and connected to the perfusion system with the catheter. One-hundred […] of pre-prepared perfusate was taken and preheated at 37 °C. The perfusion was started at a circulation speed of 1.0 mL/min for 10 min. […] Samples were collected in glass tubes (2 mL/per) at 10-min intervals for 90 min. […] The rest of the samples were stored at -20 °C for further studies.

[3] = parameters: method as in PMID 24313264; conditions: cited from earlier work
caco-2 cell monolayer = assay: Transport (permeability) across caco-2 cell monolayer, bidirectional, with and without inhibitors; assay type: in vitro ADME, human
Description: Caco-2 cells were routinely cultured in high glucose Dulbecco’s modified Eagle’s medium (DMEM) containing 10% fetal bovine serum (FBS), 1% nonessential amino acids, and 1% penicillin/streptomycin. Cells were kept at 37 °C in a 90% relative humidity atmosphere containing 5% CO2. Cells were seeded onto transwells purchased from Corning Costar Co. (New York, NY, USA) on 12-well plates for transport studies and uptake studies at 5 × 10^4 cells per insert. Cells were grown for 20 days. […] DMEM was removed and the monolayer was washed with Hank’s Balanced Salt Solution (HBSS). The blank HBSS was replaced by 0.4 mL of HBSS containing 40, 20 and 10 μg/mL of drug on the apical (AP) side and 2.1 mL of HBSS on the basolateral (BL) side. In the AP-BL direction studies, 0.4 mL of HBSS containing 40 μg/mL drug and P-gp inhibitor (53 μg/mL verapamil); MRP2 inhibitor (17.9 μg/mL indomethacin); or the co-inhibitor of P-gp, MRP2 and CYP3A4 (10 μg/mL cyclosporin A) were added to the AP side; 2.1 mL of HBSS was added to the BL side. In the BL-AP direction studies, 0.4 mL of HBSS containing 40 μg/mL drug and different inhibitors were added to the BL side, and 2.1 mL of HBSS was added to AP side. Samples (0.4 mL) were taken from the BL or AP side after 45, 60 and 90 min incubation at 37 °C. An additional 0.4 mL of HBSS was added at the same time. The concentrations of samples were analyzed by LC-MS. […] Linear regression was carried out to obtain the steady-state appearance rate of the drug on the receiver side.

change of permeability with cyclosporin A [2] | change of permeability with ketoconazole vs alone [2] | effective permeability (Peff) [2] | change of Peff and Ka values at higher drug concentration (80 μg/mL) [2] | change of Peff and Ka values between 20 and 50 μg/mL [2] | increase of Peff with indomethacin [2] [fold] | increase of intestinal transport with verapamil [2] [fold] | order of Peff and Ka values in three intestinal segments [2] | Papp (caco-2 cell monolayer) | Papp (BA)/Papp (AB) (efflux ratio, ER) (caco-2 cell monolayer) | Papp at high and medium vs lower concentration (caco-2 cell monolayer) | Papp over incubation time (caco-2 cell monolayer) | change of permeability in the presence of cyclosporin A (caco-2 cell monolayer) | SMILES | effect on cell growth (MTT) (caco-2 cells) | effect on cell viability (MTT) (caco-2 cells) | stability in K-R buffer across pH values [1] | bioavailability and tissue exposure after oral administration [3]
increased around two-fold | two-fold higher permeability | less than 0.2 × 10^−4 cm/s | significant increase | slight decline | 4.2 | 1.5 | duodenum > jejunum > ileum | less than 2 × 10^−6 cm/s | 1.0-1.5 | significant increase in permeability | upward trend over time | 10 fold | CCCCCC(=O)O[C@H]1CC(C)(C)C[C@@H]2[C@@]13[C@H](O)C[C@]1(C)[C@@]2(CC[C@@H]2[C@@]4(C)CC[C@H](O[C@@H]5OC[C@H](O[C@@H]6O[C@H](CO)[C@@H](O)[C@H](O)[C@H]6O[C@@H]6OC[C@@H](O)[C@H](O)[C@H]6O)[C@H](O)[C@H]5O[C@@H]5O[C@H](CO)[C@@H](O)[C@H](O)[C@H]5O)C(C)(C)[C@@H]4CC[C@]21C)O[C@H]3O [CAPB, capilliposide B] | did not inhibit cell growth significantly | significantly decreased cell viability | more stable at pH 5.0 and pH 6.55 than pH 7.43 | poor bioavailability and low exposure in tissues
increased slightly | minimal alteration of permeability | less than 0.2 × 10^−4 cm/s | significant decrease | slight increase | 2 | 1.5 | followed the same pattern as CAPB | less than 2 × 10^−6 cm/s | 1.0-1.5 | significant increase in permeability | upward trend over time | only a small increase | CC1(C)C[C@H](O[C@@H]2O[C@H](CO)[C@@H](O)[C@H](O)[C@H]2O)[C@@]23[C@H](O)C[C@]4(C)[C@@](CC[C@@H]5[C@@]6(C)CC[C@H](O[C@@H]7OC[C@H](O[C@@H]8O[C@H](CO)[C@@H](O)[C@H](O)[C@H]8O[C@@H]8OC[C@@H](O)[C@H](O)[C@H]8O)[C@H](O)[C@H]7O[C@@H]7O[C@H](CO)[C@@H](O)[C@H](O)[C@H]7O)C(C)(C)[C@@H]6CC[C@]54C)(O[C@@H]2O)[C@@H]3C1 [CAPC, capilliposide C] | did not inhibit cell growth significantly | significantly decreased cell viability | more stable at pH 5.0 and pH 6.55 than pH 7.43 | poor bioavailability and low exposure in tissues
